According to PubChem BioAssay (NCI):
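How tested: cells in 96-well plates exposed to compound for 48 hours at five concentrations. GI50 = concentration required for 50% inhibition of growth. TGI marks complete inhibition of growth.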

What was measured:
Assay in all cases: DTP human tumour cell line panel, 48 h
CAKI-1 renal = tested on: CAKI-1 renal
MCF7 breast = tested on: MCF7 breast
OVCAR-4 ovarian = tested on: OVCAR-4 ovarian
TK-10 renal = tested on: TK-10 renal
HOP-92 NSCLC = tested on: HOP-92 NSCLC
SK-OV-3 ovarian = tested on: SK-OV-3 ovarian
A549 NSCLC = tested on: A549 NSCLC
BT-549 breast = tested on: BT-549 breast
786-0 renal = tested on: 786-0 renal
SNB-19 CNS = tested on: SNB-19 CNS
NCI/ADR-RES ovarian = tested on: NCI/ADR-RES ovarian

| Structure (SMILES) | TGI (CAKI-1 renal) | TGI (MCF7 breast) | TGI (OVCAR-4 ovarian) | TGI (TK-10 renal) | TGI (HOP-92 NSCLC) | TGI (SK-OV-3 ovarian) | TGI (A549 NSCLC) | TGI (BT-549 breast) | TGI (786-0 renal) | TGI (SNB-19 CNS) | TGI (NCI/ADR-RES ovarian) | GI50 (CAKI-1 renal) | GI50 (MCF7 breast) | GI50 (OVCAR-4 ovarian) | GI50 (TK-10 renal) | GI50 (HOP-92 NSCLC) | GI50 (SK-OV-3 ovarian) | GI50 (A549 NSCLC) | GI50 (BT-549 breast) | GI50 (SNB-19 CNS) |
| --- | --- | --- | --- | --- | --- | --- | --- | --- | --- | --- | --- | --- | --- | --- | --- | --- | --- | --- | --- | --- |
| COC(=O)C1CCC(=O)N1C(c1ccc2c(c1)OCO2)c1cc(OC)c(OC)c(OC)c1 (centres undefined) | > 100 µM | > 100 µM | > 100 µM | > 100 µM | > 100 µM | > 100 µM | > 100 µM | > 100 µM | > 100 µM | > 100 µM |  |  |  |  |  |  |  |  |  |  |
| O=C(c1ccccc1)c1c(CC(O)c2ccncc2)n(C(=O)c2ccccc2)c2ccccc12 (centres undefined) | 59.7 µM |  | 39.7 µM | 75.2 µM | 29.4 µM |  | 52.8 µM |  | 39.1 µM | 73.1 µM |  |  |  |  |  |  |  |  |  |  |
| COC(=O)Cc1c(-c2c(CC(=O)OC)c3ccccc3n2C2OC(COC(C)=O)C(OC(C)=O)C(OC(C)=O)C2OC(C)=O)[nH]c2ccccc12 (centres undefined) | > 100 µM |  | > 100 µM | > 100 µM | > 100 µM | > 100 µM | > 100 µM | > 100 µM |  | > 100 µM |  |  |  |  |  |  |  |  |  |  |
| COc1ccc(NC(=O)C(=O)/C=C(\O)c2ccccc2)cc1 | > 10 µM | > 10 µM | > 10 µM | > 10 µM | > 10 µM | > 10 µM | > 10 µM |  | > 10 µM |  |  |  |  |  |  |  |  |  |  |  |
| COc1ccc(C2=NOC(N)(c3ccc(OC)cc3)C2)cc1 (centres undefined) | > 100 µM | > 100 µM | > 100 µM | > 100 µM | > 100 µM | > 100 µM | > 100 µM | > 100 µM | > 100 µM | > 100 µM | > 100 µM |  |  |  |  |  |  |  |  |  |
| C=C1CC[C@@H](C)[C@](C)(CCc2ccoc2)C/C=C\C=C/1C(=O)O | > 100 µM | > 100 µM | > 100 µM | > 100 µM | > 100 µM | > 100 µM | > 100 µM | 49.1 µM | > 100 µM | > 100 µM | > 100 µM |  |  |  |  |  |  |  |  |  |
| COC(=O)C(=O)Cc1nc2ccccc2o1 |  |  | > 100 µM | > 100 µM |  | > 100 µM |  |  |  | > 100 µM |  |  |  |  |  |  |  |  |  |  |
| CN1CCN(P2(=S)Oc3ccc4ccccc4c3-c3c(ccc4ccccc34)O2)CC1 | > 67.5 µM | > 81.2 µM | > 100 µM |  | 59.7 µM | > 100 µM | > 100 µM |  |  | > 100 µM | > 71 µM |  |  |  |  |  |  |  |  |  |
| COc1ccc(Nc2ccc([N+](=O)[O-])cc2[N+](=O)[O-])cc1CN(CCCl)CCCl | 4.33 µM | 13.3 µM | > 100 µM | 95.3 µM | 5.47 µM | > 100 µM | 30.7 µM | 3.96 µM |  | 25 µM |  | 1.39 µM | 1.49 µM | 2.7 µM | 3.76 µM | 1.99 µM | 3.85 µM | 4.43 µM | 1.41 µM | 3.22 µM |
| CC(C)(C)NC(=O)CCC1C(C(=O)NC(C)(C)C)C2(Cl)C(Cl)=C(Cl)C1(Cl)C2(Cl)Cl (centres undefined) |  | > 100 µM | > 100 µM | > 100 µM |  | > 100 µM | > 100 µM | > 100 µM | > 100 µM | > 100 µM | > 100 µM |  |  |  |  |  |  |  |  |  |
| CCN(CC)C1Oc2cc3c(cc2C(c2cccc(OC)c2OC)C1C)OCO3 (centres undefined) | 14.2 µM | 60.8 µM |  | 46.3 µM |  | 58.5 µM | 25.8 µM | 23.6 µM | 22.7 µM | 71.4 µM |  |  |  |  |  |  |  |  |  |  |
| O=C(O)c1cc(CCc2cc(O)ccc2O)ccc1O | > 100 µM | > 100 µM | > 100 µM | > 100 µM | > 100 µM | > 100 µM | > 100 µM | > 100 µM | > 100 µM |  | > 100 µM |  |  |  |  |  |  |  |  |  |
| CCOC(=O)c1c[nH]c2ccc3c(c2c1=O)S(=O)(=O)CC3 (tested in a mixture with another compound) | > 100 µM | > 100 µM | > 100 µM |  | > 100 µM | > 100 µM | > 100 µM |  |  | > 100 µM | > 100 µM |  |  |  |  |  |  |  |  |  |
| Cc1cc(NS(=O)(=O)c2ccc(NC(=O)c3cccc4c(Nc5ccc(S(N)(=O)=O)cc5)c5ccccc5nc34)cc2)no1 |  |  | > 100 µM | > 100 µM |  | > 100 µM |  |  |  | > 100 µM |  |  |  |  |  |  |  |  |  |  |
| O=c1[nH]nc(-c2ccccc2)n1O | > 100 µM | > 100 µM | > 100 µM | > 100 µM | > 100 µM | > 100 µM | > 100 µM |  | > 100 µM | > 100 µM | > 100 µM |  |  |  |  |  |  |  |  |  |
| OC(c1cccnc1Cl)c1nc2ccccc2c2ccnc(Cl)c12 (centres undefined) | > 100 µM | > 100 µM | > 100 µM | > 100 µM | > 100 µM | 63.4 µM | > 100 µM | > 100 µM |  | > 100 µM | > 100 µM |  |  |  |  |  |  |  |  |  |
| NNc1nnc(-c2nnc(NN)o2)o1 | > 10 µM | > 10 µM | > 10 µM | > 10 µM | > 10 µM |  | > 10 µM | > 10 µM | > 10 µM | > 10 µM | > 10 µM |  |  |  |  |  |  |  |  |  |
| N#C/C(C(=S)NCc1ccccc1)=C(/N)N1CCCC1 | > 100 µM |  | > 100 µM | > 100 µM | > 100 µM | > 100 µM | > 100 µM |  | > 100 µM | > 100 µM | > 100 µM |  |  |  |  |  |  |  |  |  |
| N#CCCC1(CCC#N)CCCCCCCCC(CCC#N)(CCC#N)C(O)C1O (centres undefined) | > 100 µM | > 100 µM | > 100 µM | > 100 µM | > 100 µM | > 100 µM | > 100 µM |  | > 100 µM | > 100 µM | > 100 µM |  |  |  |  |  |  |  |  |  |
| COc1cc(CNc2nc3ccccc3nc2C(=O)O)cc(OC)c1OC | > 100 µM | > 100 µM | > 100 µM | > 100 µM | > 100 µM | > 100 µM | > 100 µM | > 100 µM | > 100 µM |  | > 100 µM |  |  |  |  |  |  |  |  |  |
| O=C1NC2CCCCCC2C12CCCCC2 (centres undefined) |  |  | > 100 µM | > 100 µM |  | > 100 µM | > 100 µM |  |  | > 100 µM |  |  |  |  |  |  |  |  |  |  |
| O=C1CCCC/C1=C\c1ccc(Cl)c(Cl)c1 | 37.6 µM |  | 41 µM | 34.4 µM |  | > 100 µM | > 100 µM |  |  | 74.3 µM |  |  |  |  |  |  |  |  |  |  |
